Experimental data: patent US20240239784A1, “INDOLE COMPOUNDS AND METHODS OF USE” (GENZYME CORPORATION, priority 2021, published 2024)

Each compound was assayed on NBD1 (assay: Aggregation analysis of NBD1 thermal stability by differential static light scattering (DSLS)). Settings: compound at 100 μM; ΔTagg versus DMSO control.
Format: binding, Human
Method: Purified recombinant NBD1 was produced using previously described methods (A. Schmidt, J. L. Mendoza, P. J. Thomas (2011) Biochemical and Biophysical Approaches to Probe CFTR Structure (365-376) M. D. Amaral, K. Kunzelmann (eds.), Cysic Fibrosis, Methods in Molecular Biology 741, Springer Science+Business Media). The effect of test compounds on thermal stability of NBD1 was evaluated by differential static light scattering (DSLS) using the Harbinger Stargazer-384 instrument (Epiphyte Three, Toronto, Canada). Test compounds were dissolved and diluted to desired concentrations in 100% DMSO. The compounds or DMSO controls (100 nL) were stamped into wells of a […] low volume optical plate (Corning Inc., Corning, NY) using the Echo 555 acoustic liquid handler (Labcyte Inc., San Jose, CA).
NBD1 protein was diluted to 0.2 mg/ml in S200 buffer (50 mM Tris-HCl, 150 mM NaCl, 5 mM MgCl2, 2 mM ATP, 2 mM DTT, pH7.6) containing 1% glycerol. 10 uL of protein solution was aliquoted into the 384-well plate harboring the test compounds and 10 uL mineral oil was overlayed onto the protein solution, using the epMotion robotic liquid handler (Eppendorf North America, Hauppauge, NY). After placing into the Stargazer instrument, the plate was heated at 1° C. per minute to 70° C. Images were captured from 25° C. to 70° C. every 0.5° C. At the end of the experiment run, instrument software integrated image files and analyzed data automatically. A […] regression curve was generated for each well, representing the increase in light scattering over time. A temperature of aggregation (Tagg) was calculated based on the inflection point of the curve. To better compare data across experiments the average Tagg for DMSO control wells was calculated and subtracted from values for wells containing compounds to obtain a “ΔTagg” value. These ΔTagg values reflect stabilizing efficacy of the compounds.
`CN(C)CCNC(c1ccccc1)c1nnc(-c2cccc(Oc3ccc4[nH]ccc4n3)c2)[nH]1` (stereo not shown) [Example 24, N1-((5-(3-((1H-Pyrrolo[3,2-b]pyridin-5-yl)oxy)phenyl)-4H-1,2,4-triazol-3-yl)(phenyl)methyl)-N2,N2-dimethylethane-1,2-diamine] was tested, and the “DSLS NBD1/3D Human Stability delta-T (° C.) @ 100 (μM)” value (from here on “DSLS NBD1/3D Human Stability delta-T”) was “B (4-8° C.)”.
For `CC(O)(c1ccccc1)c1c[nH]c(-c2cc(Oc3c(F)cc4[nH]ccc4c3CC(F)F)ccc2F)n1` (stereo not shown) [Example 25, 1-(2-(5-((4-(2,2-Difluoroethyl)-6-fluoro-1H-indol-5-yl)oxy)-2-fluorophenyl)-1H-imidazol-4-yl)-1-phenylethan-1-ol], the “DSLS NBD1/3D Human Stability delta-T” value was “B (4-8° C.)”.
For `O=C(O)c1c(Oc2cccc(-c3ncc(C(O)c4ccccc4)[nH]3)c2)ccc2[nH]ncc12` (stereo not shown) [Example 27, 5-(3-(5-(Hydroxy(phenyl)methyl)-1H-imidazol-2-yl)phenoxy)-1H-indazole-4-carboxylic acid], the “DSLS NBD1/3D Human Stability delta-T” value was “C (≤4° C.)”.
With `CNC(=O)CNC(=O)c1c(Oc2cccc(-c3ncc(C(O)c4ccccc4)[nH]3)c2)ccc2[nH]ncc12` (stereo not shown) [Example 28, 5-(3-(5-(Hydroxy(phenyl)methyl)-1H-imidazol-2-yl)phenoxy)-N-(2-(methylamino)-2-oxoethyl)-1H-indazole-4-carboxamide] the “DSLS NBD1/3D Human Stability delta-T” value was “B (4-8° C.)”.
With `c1ccc(Cc2nnc(-c3cncc(Oc4ccc5[nH]ccc5c4)c3)[nH]2)cc1` [Example 29, 5-((5-(5-Benzyl-4H-1,2,4-triazol-3-yl)pyridin-3-yl)oxy)-1H-indole] the “DSLS NBD1/3D Human Stability delta-T” value was “C (≤4° C.)”.
In the case of `O=C(O)Cc1c[nH]c2ccc(Oc3cccc(-c4nnc(Cc5ccccc5)[nH]4)c3)cc12` [Example 30, 2-(5-(3-(5-Benzyl-4H-1,2,4-triazol-3-yl)phenoxy)-1H-indol-3-yl)acetic acid], the “DSLS NBD1/3D Human Stability delta-T” value was “C (≤4° C.)”.
For `[O-][S+](c1ccccc1)c1cnc(-c2cccc(Oc3ccc4[nH]ccc4c3)c2)[nH]1` (stereo not shown) [Example 31, 5-(3-(5-(Phenylsulfinyl)-1H-imidazol-2-yl)phenoxy)-1H-indole], the “DSLS NBD1/3D Human Stability delta-T” value was “B (4-8° C.)”.
With `O=S(=O)(c1ccccc1)c1cnc(-c2cccc(Oc3ccc4[nH]ccc4c3)c2)[nH]1` [Example 32, 5-(3-(5-(Phenylsulfonyl)-1H-imidazol-2-yl)phenoxy)-1H-indole] the “DSLS NBD1/3D Human Stability delta-T” value was “B (4-8° C.)”.
`O=C(c1cccc(-c2nnc(Cc3ccccc3)[nH]2)c1)c1ccc2[nH]ccc2c1` [Example 34, (3-(5-Benzyl-4H-1,2,4-triazol-3-yl)phenyl)(1H-indol-5-yl)methanone] was tested, and the “DSLS NBD1/3D Human Stability delta-T” value was “C (≤4° C.)”.
`O=C(O)CC(c1cccc(-c2nnc(Cc3ccccc3)[nH]2)c1)c1ccc2[nH]ccc2c1` (stereo not shown) [Example 37, 3-(3-(5-Benzyl-4H-1,2,4-triazol-3-yl)phenyl)-3˜(1H-indol-5-yl)propanoic acid] was tested, and the “DSLS NBD1/3D Human Stability delta-T” value was “C (≤4° C.)”.
With `NC(=O)CC(c1cccc(-c2nnc(Cc3ccccc3)[nH]2)c1)c1ccc2[nH]ccc2c1` (stereo not shown) [Example 38, 3-(3-(5-Benzyl-4H-1,2,4-triazol-3-yl)phenyl)-3-(1H-indol-5-yl)propanamide] the “DSLS NBD1/3D Human Stability delta-T” value was “C (≤4° C.)”.
With `CC(O)(c1ccccc1)c1cnc(-c2cccc(Sc3ccc4[nH]ccc4c3)c2)[nH]1` (stereo not shown) [Example 39, 1-(2-(3-((1H-Indol-5-yl)thio)phenyl)-1H-imidazol-5-yl)-1-phenylethan-1-ol] the “DSLS NBD1/3D Human Stability delta-T” value was “C (≤4° C.)”.
For `CC(O)(c1ccccc1)c1cnc(-c2cccc([S+]([O-])c3ccc4[nH]ccc4c3)c2)[nH]1` (stereo not shown) [Example 40, 1-(2-(3-((1H-Indol-5-yl)sulfinyl)phenyl)-1H-imidazol-5-yl)-1-phenylethan-1-ol], the “DSLS NBD1/3D Human Stability delta-T” value was “C (≤4° C.)”.
`O=C1NCc2c[nH]c3ccc(Oc4cccc(-c5nnc(Cc6ccccc6)[nH]5)c4)c1c23` [Example 42, 6-(3-(5-Benzyl-4H-1,2,4-triazol-3-yl)phenoxy)-3,4-dihydropyrrolo[4,3,2-de]isoquinolin-5(1H)-one] was tested, and the “DSLS NBD1/3D Human Stability delta-T” value was “C (≤4° C.)”.
With `c1ccc(Cc2nnc(-c3cccc(Oc4ccc5[nH]cc6c5c4CNC6)c3)[nH]2)cc1` [Example 43, 6-(3-(5-Benzyl-4H-1,2,4-triazol-3-yl)phenoxy)-1,3,4,5-tetrahydropyrrolo[4,3,2-de]isoquinoline] the “DSLS NBD1/3D Human Stability delta-T” value was “C (≤4° C.)”.
For `Nc1cnc(-c2nnc(Cc3ccccc3)[nH]2)cc1Oc1ccc2[nH]ccc2c1` [Example 44, 4-((1H-Indol-5-yl)oxy)-6-(5-benzyl-4H-1,2,4-triazol-3-yl)pyridin-3-amine], the “DSLS NBD1/3D Human Stability delta-T” value was “B (4-8° C.)”.
With `c1ccc(Cc2nnc(-c3cccc(Oc4ccc5[nH]cc6c5c4CNCC6)c3)[nH]2)cc1` [Example 46, 9-(3-(5-Benzyl-4H-1,2,4-triazol-3-yl)phenoxy)-2,3,4,6-tetrahydro-1H-azepino[5,4,3-cd]indole] the “DSLS NBD1/3D Human Stability delta-T” value was “C (≤4° C.)”.
`c1ccc(Cc2coc(-c3cccc(Oc4ccc5[nH]ccc5c4)c3)n2)cc1` [Example 47, 2-(3-((1H-Indol-5-yl)oxy)phenyl)-4-benzyloxazole] was tested, and the “DSLS NBD1/3D Human Stability delta-T” value was “C (≤4° C.)”.
With `OCc1c(Oc2cccc(-c3nc(Cc4ccccc4)cs3)c2)ccc2[nH]ccc12` [Example 48, (5-(3-(4-Benzylthiazol-2-yl)phenoxy)-1H-indol-4-yl)methanol] the “DSLS NBD1/3D Human Stability delta-T” value was “C (≤4° C.)”.
For `Nc1ccc(-c2n[nH]c(Cc3ccccc3)n2)cc1Oc1ccc2[nH]ccc2c1` [Example 49, 2-((1H-Indol-5-yl)oxy)-4-(5-benzyl-1H-1,2,4-triazol-3-yl)aniline], the “DSLS NBD1/3D Human Stability delta-T” value was “B (4-8° C.)”.
`CC(=O)NCc1c(Oc2cccc(-c3nnc(Cc4ccccc4)[nH]3)c2)ccc2[nH]ccc12` [Example 50, N-((5-(3-(5-Benzyl-4H-1,2,4-triazol-3-yl)phenoxy)-1H-indol-4-yl)methyl)acetamide] was tested, and the “DSLS NBD1/3D Human Stability delta-T” value was “B (4-8° C.)”.
With `NC(=O)Cc1c(Oc2cccc(-c3nnc(Cc4ccccc4)[nH]3)c2)ccc2[nH]ccc12` [Example 51, 2-(5-(3-(5-Benzyl-4H-1,2,4-triazol-3-yl)phenoxy)-1H-indol-4-yl)acetamide] the “DSLS NBD1/3D Human Stability delta-T” value was “B (4-8° C.)”.
For `OC(c1ccccc1)c1cnc(-c2cccc(Oc3ccc4[nH]ccc4n3)c2)[nH]1` (stereo not shown) [Example 52, (2-(3-((1H-Pyrrolo[3,2-b]pyridin-5-yl)oxy)phenyl)-1H-imidazol-5-yl)(phenyl)methanol], the “DSLS NBD1/3D Human Stability delta-T” value was “B (4-8° C.)”.
In the case of `CC(O)(c1ccccc1)c1cnc(-c2cccc(Oc3ccc4[nH]ccc4n3)c2)[nH]1` (stereo not shown) [Example 53, 1-(2-(3-((1H-Pyrrolo[3,2-b]pyridin-5-yl)oxy)phenyl)-1H-imidazol-5-yl)-1-phenylethan-1-ol], the “DSLS NBD1/3D Human Stability delta-T” value was “B (4-8° C.)”.
`CN(C)CCNC(c1ccccc1)c1c[nH]c(-c2cccc(Oc3ccc4[nH]ccc4n3)c2)n1` (stereo not shown) [Example 54, N1-((2-(3-((1H-pyrrolo[3,2-b]pyridin-5-yl)oxy)phenyl)-1H-imidazol-5-yl)(phenyl)methyl)-N2,N2-dimethylethane-1,2-diamine] was tested, and the “DSLS NBD1/3D Human Stability delta-T” value was “B (4-8° C.)”.
For `C[S+]([O-])c1c(Oc2cccc(-c3ncc(C(O)c4ccccc4)[nH]3)c2)ccc2[nH]ccc12` (stereo not shown) [Example 55, (2-(3-((4-(Methylsulfinyl)-1H-indol-5-yl)oxy)phenyl)-1H-imidazol-5-yl)(phenyl)methanol], the “DSLS NBD1/3D Human Stability delta-T” value was “B (4-8° C.)”.
With `CS(=O)(=O)NC(=O)Cc1c(Oc2cccc(-c3nnc(Cc4ccccc4)[nH]3)c2)ccc2[nH]ccc12` [Example 56, 2-(5-(3-(5-Benzyl-4H-1,2,4-triazol-3-yl)phenoxy)-1H-indol-4-yl)-N-(methylsulfonyl)acetamide] the “DSLS NBD1/3D Human Stability delta-T” value was “A (T ≥8° C.)”.
`Cn1nc(-c2cccc(Oc3ccc4[nH]ccc4c3C(N)=O)c2)nc1Cc1ccccc1` [Example 57, 5-(3-(5-Benzyl-1-methyl-1H-1,2,4-triazol-3-yl)phenoxy)-1H-indole-4-carboxamide] was tested, and the “DSLS NBD1/3D Human Stability delta-T” value was “B (4-8° C.)”.
With `O=C(O)CCc1c(Oc2cccc(-c3nnc(Cc4ccccc4)[nH]3)c2)ccc2[nH]ccc12` [Example 58, 3-(5-(3-(5-Benzyl-4H-1,2,4-triazol-3-yl)phenoxy)-1H-indol-4-yl)propanoic acid] the “DSLS NBD1/3D Human Stability delta-T” value was “A (T ≥8° C.)”.
For `CS(=O)(=O)NC(=O)CCc1c(Oc2cccc(-c3nnc(Cc4ccccc4)[nH]3)c2)ccc2[nH]ccc12` [Example 59, 3-(5-(3-(5-Benzyl-4H-1,2,4-triazol-3-yl)phenoxy)-1H-indol-4-yl)-N-(methylsulfonyl)propanamide], the “DSLS NBD1/3D Human Stability delta-T” value was “B (4-8° C.)”.
`O=C(Cc1c(Oc2cccc(-c3nnc(Cc4ccccc4)[nH]3)c2)ccc2[nH]ccc12)NS(=O)(=O)C(F)(F)F` [Example 60, 2-(5-(3-(5-Benzyl-4H-1,2,4-triazol-3-yl)phenoxy)-1H-indol-4-yl)-N-((trifluoromethyl)sulfonyl)acetamide] was tested, and the “DSLS NBD1/3D Human Stability delta-T” value was “A (T ≥8° C.)”.
